Where two headings read alike, the source gives them in different places.
Assays:
[1] = biological target: T1, Class A ESBL CTXM-15 (Escherichia coli, UniProt Q9EXV5); experiment: β-lactamase enzyme inhibition (nitrocefin hydrolysis), CTXM-15; format: biochemical; settings: purified enzyme; nitrocefin 100 μM, PBS pH 7.0; read-out: CTXM-15 IC50 Range
T1 construct: made in house; host or cells: E. coli BL21(DE3)
Procedure, shortened: (§1)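 Native untagged enzymes were expressed in E. coli BL21(DE3) and purified by cation exchange and gel filtration. Compound series (100–0.005 μM in PBS pH 7.0, before addition of an equal enzyme volume) were preincubated with enzyme 10 min at 37°C. Nitrocefin (100 μM final) hydrolysis was read kinetically at 486 nm for 10 min, and IC50 was taken as 50% reduction of initial rate versus no-inhibitor wells.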

[2] = tested on: K. pneumoniae expressing the Class A carbapenemase KPC-2; experiment: microbe, parasite or virus in culture; settings: in the presence of fixed 8 μg/mL Ceftazidime
[3] = biological target: T2, Class C P99 AmpC (Enterobacter cloacae, UniProt P05364); format: biochemical; settings: purified enzyme; nitrocefin 100 μM, PBS pH 7.0; read-out: P99 AmpC IC50 Range
T2 construct: made in house; host or cells: E. coli BL21(DE3)
T2 sequence (P05364 21-381): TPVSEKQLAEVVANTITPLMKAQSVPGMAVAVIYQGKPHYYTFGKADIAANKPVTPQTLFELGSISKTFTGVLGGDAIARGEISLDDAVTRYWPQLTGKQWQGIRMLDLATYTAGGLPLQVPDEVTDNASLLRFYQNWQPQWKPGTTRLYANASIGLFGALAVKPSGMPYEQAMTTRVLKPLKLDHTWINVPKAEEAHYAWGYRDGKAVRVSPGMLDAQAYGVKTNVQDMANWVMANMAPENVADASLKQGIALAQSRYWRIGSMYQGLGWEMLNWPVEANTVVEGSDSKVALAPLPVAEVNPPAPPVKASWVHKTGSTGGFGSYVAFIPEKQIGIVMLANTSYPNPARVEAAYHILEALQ
Procedure, shortened: as §1

[4] = biological target: T3, Class A ESBL SHV-5 (Klebsiella pneumoniae, UniProt P0A3M1); format: biochemical, E. coli; settings: nitrocefin 100 μM, PBS pH 7.0, read-out: SHV-5 IC50 Range
T3 construct: made in house; host or cells: E. coli BL21(DE3) for purified enzyme; E. coli cells containing SHV-5 for extracts
T3 sequence (P0A3M1 22-286): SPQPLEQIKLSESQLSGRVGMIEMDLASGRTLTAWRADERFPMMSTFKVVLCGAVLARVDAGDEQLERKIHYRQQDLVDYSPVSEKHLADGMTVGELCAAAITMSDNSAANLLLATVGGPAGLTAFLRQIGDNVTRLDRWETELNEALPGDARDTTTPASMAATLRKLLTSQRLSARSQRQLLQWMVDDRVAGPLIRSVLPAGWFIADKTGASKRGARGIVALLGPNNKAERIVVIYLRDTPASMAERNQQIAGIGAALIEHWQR

[5] = tested on: E. cloacae expressing the Class C P99+ AmpC; experiment: microbe, parasite or virus in culture; format: cell-based; settings: in the presence of fixed 8 μg/mL Ceftazidime
Procedure, shortened: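 Broth microdilution potentiation assay in cation-adjusted Mueller Hinton broth: compound was titrated 8 to 0.015 μg/mL final against a fixed 8 μg/ml cephalosporin. Strains were pre-grown 3-5 h with 50 μg/mL ampicillin and inoculated per CLSI. MIC was read visually after 16-20 h at 37° C.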

[6] = tested on: E. coli expressing the Class A ESBL SHV-5; experiment: microbe, parasite or virus in culture; format: cell-based; settings: in the presence of fixed 8 μg/mL Ceftazidime
[7] = tested on: K. pneumoniae expressing the Class A ESBL CTX-M-15; experiment: microbe, parasite or virus in culture; format: cell-based; settings: in the presence of fixed 8 μg/mL Ceftazidime
[8] = biological target: T4, Class A carbapenemase KPC-2 (Klebsiella pneumoniae, UniProt Q9F663); experiment: β-lactamase enzyme inhibition (nitrocefin hydrolysis), KPC-2; format: biochemical; settings: purified enzyme; nitrocefin 100 μM, PBS pH 7.0; read-out: KPC-2 IC50 Range
T4 construct: made in house; host or cells: E. coli BL21(DE3)
T4 sequence (Q9F663 25-293 limits assumed): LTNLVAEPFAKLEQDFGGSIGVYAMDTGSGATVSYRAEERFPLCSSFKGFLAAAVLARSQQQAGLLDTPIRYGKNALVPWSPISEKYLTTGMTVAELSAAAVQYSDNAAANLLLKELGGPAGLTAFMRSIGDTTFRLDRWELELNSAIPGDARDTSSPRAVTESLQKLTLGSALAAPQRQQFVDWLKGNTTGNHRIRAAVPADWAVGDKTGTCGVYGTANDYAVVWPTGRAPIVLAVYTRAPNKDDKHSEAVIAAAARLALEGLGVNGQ
Procedure, shortened: as §1

[9] = cellular extracts of E. coli containing SHV-5 (Examples 2-30)
[10] = purified beta-lactamase enzyme (Examples 1 and 31-64)

T1 sequence (Q9EXV5 entry or part of it): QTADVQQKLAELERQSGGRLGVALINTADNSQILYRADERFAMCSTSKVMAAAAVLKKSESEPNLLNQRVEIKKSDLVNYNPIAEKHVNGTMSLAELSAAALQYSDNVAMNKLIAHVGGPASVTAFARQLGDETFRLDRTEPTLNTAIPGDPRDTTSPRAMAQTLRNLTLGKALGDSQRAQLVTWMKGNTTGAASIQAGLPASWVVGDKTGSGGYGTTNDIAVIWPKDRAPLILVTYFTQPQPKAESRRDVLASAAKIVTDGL

Compound | IC50 [1] | MIC of example compound, K. pneumoniae KPC-2 + 8 μg/mL CAZ [2] | IC50 [3] | IC50 [4, 9] | MIC of example compound, E. cloacae P99 AmpC + 8 μg/mL CAZ [5] | MIC of example compound, E. coli SHV-5 + 8 μg/mL CAZ [6] | MIC of example compound, K. pneumoniae CTX-M-15 + 8 μg/mL CAZ [7] | IC50 [8] | IC50 [4, 10]
O=C(Cc1ccccc1)N[C@@H](Cc1cccc(C(=O)O)c1O)B(O)O [Example 10, (1R)-1-(2-phenylacetylamino)-2-(2-hydroxy-3-carboxyphenyl)ethyl-1-boronic acid] | < 10 nM | C (C represents an MIC of <1 μg/mL) | < 10 nM | < 10 nM | C (C represents an MIC of <1 μg/mL) | C (C represents an MIC of <1 μg/mL) | C (C represents an MIC of <1 μg/mL) |  | 
COc1ccc(OC)c(CC(=O)N[C@@H](Cc2cccc(C(=O)O)c2O)B(O)O)c1 [Example 17, (1R)-1-(2-(2,5-dimethoxyphenyl)-acetylamino)-2-(2-hydroxy-3-carboxyphenyl)ethyl-1-boronic acid] | < 10 nM |  | < 10 nM | < 10 nM | C (C represents an MIC of <1 μg/mL) | A (A represents an MIC >8 μg/mL) | C (C represents an MIC of <1 μg/mL) | < 10 nM | 
CCCCC(=O)N[C@@H](Cc1cccc(C(=O)O)c1O)B(O)O [Example 23, (1R)-1-(pentanoylamino)-2-(2-hydroxy-3-carboxyphenyl)ethyl-1-boronic acid] | < 10 nM | C (C represents an MIC of <1 μg/mL) | 10 to 100 nM | 10 to 100 nM | C (C represents an MIC of <1 μg/mL) | C (C represents an MIC of <1 μg/mL) | C (C represents an MIC of <1 μg/mL) | < 10 nM | 
Nc1nc(CC(=O)N[C@@H](Cc2cccc(C(=O)O)c2O)B(O)O)cs1.O=CO [Example 39, (1R)-1-(2-Amino-thiazol-4-yl)-acetylamino-1-(3-carboxy-2-hydroxy)benzyl-methylboronic acid formate salt] | < 10 nM | C (C represents an MIC of <1 μg/mL) | < 10 nM |  | C (C represents an MIC of <1 μg/mL) | C (C represents an MIC of <1 μg/mL) | C (C represents an MIC of <1 μg/mL) | 100 to 1000 nM | < 10 nM
NCC(=O)N[C@@H](Cc1cccc(C(=O)O)c1O)B(O)O.O=CO [Example 41, (1R)-1-(2-aminoacetylamino)-2-(2-hydroxy-3-carboxyphenyl)ethyl-1-boronic acid formate salt] | 100 to 1000 nM | C (C represents an MIC of <1 μg/mL) | > 1000 nM |  | A (A represents an MIC >8 μg/mL) | A (A represents an MIC >8 μg/mL) | A (A represents an MIC >8 μg/mL) | 10 to 100 nM | > 1000 nM
Cl.O=C(Cc1ccncc1)N[C@@H](Cc1cccc(C(=O)O)c1O)B(O)O [Example 52, (1R)-1-(4-Pyridylacetylamino)-2-(2-hydroxy-3-carboxyphenyl)ethyl-1-boronic acid hydrochloride] | < 10 nM | C (C represents an MIC of <1 μg/mL) | < 10 nM |  | C (C represents an MIC of <1 μg/mL) | C (C represents an MIC of <1 μg/mL) | C (C represents an MIC of <1 μg/mL) | < 10 nM | < 10 nM
O=C(N[C@@H](Cc1cccc(C(=O)O)c1O)B(O)O)c1cnc2ccccc2n1 [Example 54, (1R)-1-(Quinoxaline-2-carbonyl-amino)-2-(2-hydroxy-3-carboxyphenyl)ethyl-1-boronic acid] | < 10 nM |  | < 10 nM |  | A (A represents an MIC >8 μg/mL) | A (A represents an MIC >8 μg/mL) | A (A represents an MIC >8 μg/mL) | < 10 nM | 10 to 100 nM
O=C(N[C@@H](Cc1cccc(C(=O)O)c1O)B(O)O)c1cn2ccsc2n1 [Example 56, (1R)-1-(Imidazo[2,1-b]thiazole-6-carbonyl-amino)-2-(2-hydroxy-3-carboxyphenyl)ethyl-1-boronic acid] | 10 to 100 nM |  | 100 to 1000 nM |  | A (A represents an MIC >8 μg/mL) | A (A represents an MIC >8 μg/mL) | A (A represents an MIC >8 μg/mL) | 100 to 1000 nM | 10 to 100 nM

Reference: patent US20100120715A1, “BETA-LACTAMASE INHIBITORS” (priority 2007, published 2010)
